The record followed here is paper PMC7145717, “A nucleotide-dependent oligomerization of the Escherichia coli replication initiator DnaA requires residue His136 for remodeling of the chromosomal origin” (Nucleic Acids Research, 2019).

The target of data set [1] is T1, DnaA (Escherichia coli replication initiator DnaA) (Escherichia coli, UniProt P03004).
T1 construct: full-length, residues 1-467, 10X-histidine-tagged, recombinant from plasmid pZL411, Ni-NTA purified (SAXS samples also Sephacryl-300 gel filtration), ~52 kDa monomer
T1 sequence (P03004 1-467): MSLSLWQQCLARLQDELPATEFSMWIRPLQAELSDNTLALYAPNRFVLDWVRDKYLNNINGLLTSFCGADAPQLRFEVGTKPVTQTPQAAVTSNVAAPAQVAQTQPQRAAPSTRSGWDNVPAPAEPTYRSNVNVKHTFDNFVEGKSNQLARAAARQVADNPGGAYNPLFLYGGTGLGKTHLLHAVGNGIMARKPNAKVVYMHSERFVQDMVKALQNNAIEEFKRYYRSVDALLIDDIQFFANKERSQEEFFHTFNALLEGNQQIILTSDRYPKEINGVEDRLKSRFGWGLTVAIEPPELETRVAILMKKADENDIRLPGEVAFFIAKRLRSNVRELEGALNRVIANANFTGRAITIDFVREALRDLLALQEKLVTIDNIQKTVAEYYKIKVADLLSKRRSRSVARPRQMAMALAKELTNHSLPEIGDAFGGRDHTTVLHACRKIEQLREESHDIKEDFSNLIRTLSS
The experiment in a line: nitrocellulose filter retention assay. The conditions noted are these: read-out: K D (ATP binding). The source says: (§1) nitrocellulose filter retention assay on DnaA (Escherichia coli replication initiator DnaA)

The target of data set [2] is T2, DnaA (Escherichia coli replication initiator DnaA) (Escherichia coli, UniProt P03004, Q156N).
T2 construct: full-length, residues 1-467, 10X-histidine-tagged, recombinant from plasmid pZL411, Ni-NTA purified (SAXS samples also Sephacryl-300 gel filtration), ~52 kDa monomer
T2 sequence (P03004 1-467 Q156N): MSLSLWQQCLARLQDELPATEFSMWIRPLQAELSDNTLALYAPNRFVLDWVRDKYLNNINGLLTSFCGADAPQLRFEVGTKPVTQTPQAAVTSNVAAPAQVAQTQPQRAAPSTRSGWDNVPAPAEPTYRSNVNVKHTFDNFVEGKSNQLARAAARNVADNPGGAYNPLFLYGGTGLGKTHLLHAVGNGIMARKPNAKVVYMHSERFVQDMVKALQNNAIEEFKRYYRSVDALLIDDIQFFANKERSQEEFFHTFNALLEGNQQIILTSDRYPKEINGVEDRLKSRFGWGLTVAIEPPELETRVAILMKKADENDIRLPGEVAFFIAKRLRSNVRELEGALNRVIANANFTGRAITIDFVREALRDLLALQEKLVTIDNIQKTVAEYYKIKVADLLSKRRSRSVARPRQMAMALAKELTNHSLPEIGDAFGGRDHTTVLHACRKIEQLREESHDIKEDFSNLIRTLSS
As to the kind of experiment: nitrocellulose filter retention assay. The conditions noted are these: read-out: K D (ATP binding).
Description: as §1

The target in data set [3] is T3, DnaA (Escherichia coli replication initiator DnaA) (Escherichia coli, UniProt P03004, H136Q).
T3 construct: full-length, residues 1-467, 10X-histidine-tagged, recombinant from plasmid pZL411, Ni-NTA purified (SAXS samples also Sephacryl-300 gel filtration), ~52 kDa monomer
T3 sequence (P03004 1-467 H136Q): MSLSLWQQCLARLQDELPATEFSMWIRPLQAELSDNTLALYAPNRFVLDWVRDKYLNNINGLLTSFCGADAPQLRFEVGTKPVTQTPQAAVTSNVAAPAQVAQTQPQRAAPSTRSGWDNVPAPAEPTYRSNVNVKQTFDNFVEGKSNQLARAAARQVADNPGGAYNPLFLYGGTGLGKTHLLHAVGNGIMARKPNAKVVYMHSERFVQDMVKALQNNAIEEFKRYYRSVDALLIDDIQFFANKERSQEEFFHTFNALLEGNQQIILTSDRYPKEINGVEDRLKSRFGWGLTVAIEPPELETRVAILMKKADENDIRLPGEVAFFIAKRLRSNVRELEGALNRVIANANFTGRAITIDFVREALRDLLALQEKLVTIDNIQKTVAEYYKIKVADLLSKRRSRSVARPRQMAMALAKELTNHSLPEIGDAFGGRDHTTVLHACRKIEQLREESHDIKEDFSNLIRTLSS
As to the kind of experiment: nitrocellulose filter retention assay. The conditions noted are these: read-out: K D (ATP binding).
Description: as §1

Data set [4] addresses T4, DnaA (Escherichia coli replication initiator DnaA) (Escherichia coli, UniProt P03004, Q156E).
T4 construct: full-length, residues 1-467, 10X-histidine-tagged, recombinant from plasmid pZL411, Ni-NTA purified (SAXS samples also Sephacryl-300 gel filtration), ~52 kDa monomer
T4 sequence (P03004 1-467 Q156E): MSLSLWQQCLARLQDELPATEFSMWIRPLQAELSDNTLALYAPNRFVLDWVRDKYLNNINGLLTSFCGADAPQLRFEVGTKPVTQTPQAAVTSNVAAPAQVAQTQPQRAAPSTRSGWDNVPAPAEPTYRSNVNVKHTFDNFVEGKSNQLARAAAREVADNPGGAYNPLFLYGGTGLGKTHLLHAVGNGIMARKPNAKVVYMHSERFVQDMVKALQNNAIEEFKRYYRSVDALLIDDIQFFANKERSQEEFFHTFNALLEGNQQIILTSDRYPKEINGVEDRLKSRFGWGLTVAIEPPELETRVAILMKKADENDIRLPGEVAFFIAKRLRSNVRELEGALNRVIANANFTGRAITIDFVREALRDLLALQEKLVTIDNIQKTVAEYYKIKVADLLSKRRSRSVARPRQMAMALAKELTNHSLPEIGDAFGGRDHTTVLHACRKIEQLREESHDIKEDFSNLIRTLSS
As to the kind of experiment: nitrocellulose filter retention assay. The conditions noted are these: read-out: K D (ATP binding).
Description: as §1

The target in data set [5] is T5, DnaA (Escherichia coli replication initiator DnaA) (Escherichia coli, UniProt P03004, H136A).
T5 construct: full-length, residues 1-467, 10X-histidine-tagged, recombinant from plasmid pZL411, Ni-NTA purified (SAXS samples also Sephacryl-300 gel filtration), ~52 kDa monomer
T5 sequence (P03004 1-467 H136A): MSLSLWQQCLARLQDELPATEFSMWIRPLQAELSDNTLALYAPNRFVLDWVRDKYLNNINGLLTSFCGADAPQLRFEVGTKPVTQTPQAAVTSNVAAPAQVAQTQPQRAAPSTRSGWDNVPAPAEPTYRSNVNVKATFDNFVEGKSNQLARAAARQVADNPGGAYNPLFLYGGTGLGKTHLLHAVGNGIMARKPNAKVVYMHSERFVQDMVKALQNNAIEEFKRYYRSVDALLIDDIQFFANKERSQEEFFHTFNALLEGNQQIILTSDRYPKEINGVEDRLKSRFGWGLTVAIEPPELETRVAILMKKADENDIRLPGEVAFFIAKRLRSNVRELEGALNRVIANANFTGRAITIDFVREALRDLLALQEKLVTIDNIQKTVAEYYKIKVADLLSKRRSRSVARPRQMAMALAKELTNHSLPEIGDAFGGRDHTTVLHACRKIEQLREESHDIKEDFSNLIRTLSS
The experiment in a line: nitrocellulose filter retention assay. The conditions noted are these: read-out: K D (ATP binding).
Description: as §1

Data set [6] concerns the target T6, DnaA (Escherichia coli replication initiator DnaA) (Escherichia coli, UniProt P03004, F76Y).
T6 construct: full-length, residues 1-467, 10X-histidine-tagged, recombinant from plasmid pZL411, Ni-NTA purified (SAXS samples also Sephacryl-300 gel filtration), ~52 kDa monomer
T6 sequence (P03004 1-467 F76Y): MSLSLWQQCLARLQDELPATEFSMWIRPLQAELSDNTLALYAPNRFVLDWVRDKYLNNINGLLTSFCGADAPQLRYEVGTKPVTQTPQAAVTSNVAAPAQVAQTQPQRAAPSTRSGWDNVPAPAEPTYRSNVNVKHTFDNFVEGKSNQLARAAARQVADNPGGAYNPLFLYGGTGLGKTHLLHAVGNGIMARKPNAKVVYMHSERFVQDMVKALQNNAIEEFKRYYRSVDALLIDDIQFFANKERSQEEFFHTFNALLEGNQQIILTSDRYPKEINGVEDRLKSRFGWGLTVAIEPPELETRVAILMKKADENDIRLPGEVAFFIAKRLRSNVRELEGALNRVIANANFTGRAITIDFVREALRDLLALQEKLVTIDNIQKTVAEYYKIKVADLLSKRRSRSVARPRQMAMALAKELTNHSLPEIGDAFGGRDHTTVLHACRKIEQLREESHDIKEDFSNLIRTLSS
The experiment in a line: nitrocellulose filter retention assay. The conditions noted are these: read-out: K D (ATP binding).
Description: as §1

The target in data set [7] is T7, DnaA (Escherichia coli replication initiator DnaA) (Escherichia coli, UniProt P03004, F76A).
T7 construct: full-length, residues 1-467, 10X-histidine-tagged, recombinant from plasmid pZL411, Ni-NTA purified (SAXS samples also Sephacryl-300 gel filtration), ~52 kDa monomer
T7 sequence (P03004 1-467 F76A): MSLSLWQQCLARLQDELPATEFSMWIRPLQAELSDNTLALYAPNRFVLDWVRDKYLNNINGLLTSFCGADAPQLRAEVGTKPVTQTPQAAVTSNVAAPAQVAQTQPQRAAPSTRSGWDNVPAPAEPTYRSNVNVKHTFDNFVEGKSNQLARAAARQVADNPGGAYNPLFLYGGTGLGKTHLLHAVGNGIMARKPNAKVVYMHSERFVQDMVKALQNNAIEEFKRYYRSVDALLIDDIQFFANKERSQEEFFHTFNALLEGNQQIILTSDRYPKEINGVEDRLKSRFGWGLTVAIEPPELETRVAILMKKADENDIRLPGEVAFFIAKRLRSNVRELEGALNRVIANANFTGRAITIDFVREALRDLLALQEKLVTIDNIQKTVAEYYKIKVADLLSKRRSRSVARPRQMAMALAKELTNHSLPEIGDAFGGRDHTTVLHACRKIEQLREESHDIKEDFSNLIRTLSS
As to the kind of experiment: nitrocellulose filter retention assay. The conditions noted are these: read-out: K D (ATP binding).
Description: as §1

Data set [8] deals with the molecule itself. As to the kind of experiment: cross-linking; amine-specific cross-linker DTSSP; apo or with 0.5 mM ADP, AMP-PNP or ATP; SDS-PAGE and western blot with anti-DnaA antibody. Background: A western blot detects proteins with antibodies after separation by electrophoresis.

Turning to `Nc1ncnc2c1ncn2[C@@H]1O[C@H](COP(=O)(O)OP(=O)(O)OP(=O)(O)O)[C@@H](O)[C@H]1O` [ATP], the Kd in data set [1] was 110 ± 30 nM; in data set [2], 100 ± 20 nM; in data set [3], 100 ± 20 nM; in data set [4] it was 100 ± 20 nM; in data set [5], 140 ± 40 nM; in data set [6], 140 ± 30 nM. In data set [7], the Kd was determined as 120 ± 30 nM.

B1: DnaA(H136A) (natural protein, E. coli, UniProt P03004 1-467, looked up)
chain: MSLSLWQQCLARLQDELPATEFSMWIRPLQAELSDNTLALYAPNRFVLDWVRDKYLNNINGLLTSFCGADAPQLRFEVGTKPVTQTPQAAVTSNVAAPAQVAQTQPQRAAPSTRSGWDNVPAPAEPTYRSNVNVKATFDNFVEGKSNQLARAAARQVADNPGGAYNPLFLYGGTGLGKTHLLHAVGNGIMARKPNAKVVYMHSERFVQDMVKALQNNAIEEFKRYYRSVDALLIDDIQFFANKERSQEEFFHTFNALLEGNQQIILTSDRYPKEINGVEDRLKSRFGWGLTVAIEPPELETRVAILMKKADENDIRLPGEVAFFIAKRLRSNVRELEGALNRVIANANFTGRAITIDFVREALRDLLALQEKLVTIDNIQKTVAEYYKIKVADLLSKRRSRSVARPRQMAMALAKELTNHSLPEIGDAFGGRDHTTVLHACRKIEQLREESHDIKEDFSNLIRTLSS
notes: DnaA, E. coli, amino acid residues 1-467, with H136A; Made by site-directed mutagenesis on pZL411; also called ATP-DnaA(H136A)
In the case of B1, the binding result in data set [8] was “binds”.
